Laboratory results reported in patent US20170050957A1, “4-AMINO-6-(HETEROCYCLIC)PICOLINATES AND 6-AMINO-2-(HETEROCYCLIC)PYRIMIDINE-4-CARBOXYLATES AND THEIR USE AS HERBICIDES” (Dow AgroSciences LLC, priority 2013, published 2017).
Read-outs that look alike come from different tables or passages of the source.

Legend:
[1] = system: Key Grass and Sedge Weeds as well as Grass Crops; assay: Post-emergent Test II herbicidal activity (Table 16); assay type: in vivo; details: post-emergence, 336 h, 14 d; for pest or weed control at 35 g/ha: 35 g ai/ha; for pest or weed control at 70 g/ha: 70 g ai/ha; for pest or weed control at 140 g/ha: 140 g ai/ha
Summary of the method: (§1)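 Herbicidal effect scored as percent visual injury, 14 d after post-emergent application. Spray solutions contained acetone, DMSO, isopropyl alcohol, crop oil concentrate and surfactant, applied at 187 L/ha to young plants (1-2 true leaves).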

[2] = system: Key Broadleaf Weed and Crop Species; assay: Post-emergent Test II herbicidal activity (Table 15); assay type: in vivo; details: post-emergence, 336 h, 14 d; for pest or weed control at 35 g/ha: 35 g ai/ha; for pest or weed control at 70 g/ha: 70 g ai/ha; for pest or weed control at 140 g/ha: 140 g ai/ha
Summary of the method: as §1

[3] = Cyperus esculentus, yellow nutsedge (Cyperus esculentus), read-out: Visual Growth Reduction (%) 14 Days After Application, CYPES
[4] = Echinochloa crus-galli, barnyardgrass (Echinochloa crus-galli), read-out: Visual Growth Reduction (%) 14 Days After Application, ECHCG
[5] = Oryza sativa, rice (Oryza sativa), read-out: Visual Growth Reduction (%) 14 Days After Application, ORYSA
[6] = Setaria faberi, giant foxtail (Setaria faberi), read-out: Visual Growth Reduction (%) 14 Days After Application, SETFA
[7] = Triticum aestivum, wheat, spring (Triticum aestivum), read-out: Visual Growth Reduction (%) 14 Days After Application, TRZAS
[8] = Zea mays, maize, corn (Zea mays), read-out: Visual Growth Reduction (%) 14 Days After Application, ZEAMX
[9] = Abutilon theophrasti, velvetleaf (Abutilon theophrasti), read-out: Visual Growth Reduction (%) 14 Days After Application, ABUTH
[10] = Amaranthus retroflexus, redroot pigweed (Amaranthus retroflexus), read-out: Visual Growth Reduction (%) 14 Days After Application, AMARE
[11] = Brassica napus, oilseed rape, canola (Brassica napus), read-out: Visual Growth Reduction (%) 14 Days After Application, BRSNN
[12] = Chenopodium album, lambsquarters (Chenopodium album), read-out: Visual Growth Reduction (%) 14 Days After Application, CHEAL
[13] = Euphorbia heterophylla, wild poinsettia (Euphorbia heterophylla), read-out: Visual Growth Reduction (%) 14 Days After Application, EPHHL
[14] = Helianthus annuus, sunflower (Helianthus annuus), read-out: Visual Growth Reduction (%) 14 Days After Application, HELAN

COC(=O)c1nc(-c2ccc3ccoc3c2F)nc(N)c1OC [Compound 2.13]
60 to 74%: pest or weed control at 140 g/ha [1, 6] | pest or weed control at 35 g/ha [2, 10]
85 to 94%: pest or weed control at 70 g/ha [1, 3] | pest or weed control at 140 g/ha [1, 3] | pest or weed control at 70 g/ha [2, 14]
75 to 84%: pest or weed control at 35 g/ha [1, 4] | pest or weed control at 35 g/ha [2, 14]
95 to 100%: pest or weed control at 70 g/ha [1, 4] | pest or weed control at 140 g/ha [1, 4] | pest or weed control at 35 g/ha [2, 9] | pest or weed control at 70 g/ha [2, 9] | pest or weed control at 140 g/ha [2, 9] | pest or weed control at 70 g/ha [2, 10] | pest or weed control at 140 g/ha [2, 10] | pest or weed control at 35 g/ha [2, 11] | pest or weed control at 70 g/ha [2, 11] | pest or weed control at 140 g/ha [2, 11] | pest or weed control at 35 g/ha [2, 12] | pest or weed control at 70 g/ha [2, 12] | pest or weed control at 140 g/ha [2, 12] | pest or weed control at 35 g/ha [2, 13] | pest or weed control at 70 g/ha [2, 13] | pest or weed control at 140 g/ha [2, 13] | pest or weed control at 140 g/ha [2, 14]
0 to 29%: pest or weed control at 35 g/ha [1, 5] | pest or weed control at 35 g/ha [1, 6] | pest or weed control at 35 g/ha [1, 7] | pest or weed control at 35 g/ha [1, 8]
45 to 59%: pest or weed control at 70 g/ha [1, 6] | pest or weed control at 70 g/ha [1, 7] | pest or weed control at 140 g/ha [1, 7] | pest or weed control at 140 g/ha [1, 8]
30 to 44%: pest or weed control at 35 g/ha [1, 3] | pest or weed control at 70 g/ha [1, 5] | pest or weed control at 140 g/ha [1, 5] | pest or weed control at 70 g/ha [1, 8]
178 °C: melting point

COC(=O)c1nc(-c2cc3occc3cc2F)nc(N)c1OC [Compound 2.14]
75 to 84%: pest or weed control at 140 g/ha [1, 4]
153 °C: melting point
85 to 94%: pest or weed control at 35 g/ha [2, 12] | pest or weed control at 35 g/ha [2, 13] | pest or weed control at 70 g/ha [2, 14]
95 to 100%: pest or weed control at 35 g/ha [2, 10] | pest or weed control at 70 g/ha [2, 10] | pest or weed control at 140 g/ha [2, 10] | pest or weed control at 35 g/ha [2, 11] | pest or weed control at 70 g/ha [2, 11] | pest or weed control at 140 g/ha [2, 11] | pest or weed control at 70 g/ha [2, 12] | pest or weed control at 140 g/ha [2, 12] | pest or weed control at 70 g/ha [2, 13] | pest or weed control at 140 g/ha [2, 13] | pest or weed control at 140 g/ha [2, 14]
0 to 29%: pest or weed control at 35 g/ha [1, 3] | pest or weed control at 70 g/ha [1, 3] | pest or weed control at 140 g/ha [1, 3] | pest or weed control at 35 g/ha [1, 4] | pest or weed control at 70 g/ha [1, 4] | pest or weed control at 35 g/ha [1, 5] | pest or weed control at 70 g/ha [1, 5] | pest or weed control at 140 g/ha [1, 5] | pest or weed control at 35 g/ha [1, 6] | pest or weed control at 70 g/ha [1, 6] | pest or weed control at 140 g/ha [1, 6] | pest or weed control at 35 g/ha [1, 7] | pest or weed control at 70 g/ha [1, 7] | pest or weed control at 140 g/ha [1, 7] | pest or weed control at 35 g/ha [1, 8] | pest or weed control at 70 g/ha [1, 8] | pest or weed control at 140 g/ha [1, 8] | pest or weed control at 35 g/ha [2, 9] | pest or weed control at 70 g/ha [2, 9] | pest or weed control at 140 g/ha [2, 9]
60 to 74%: pest or weed control at 35 g/ha [2, 14]
